Laboratory results from US20090186809A1, “USE OF VALPROIC ACID FOR THE TOPICAL TREATMENT OF MILD TO MODERATE ACNE VULGARIS” (TOPOTARGET GERMANY AG, priority 2006, published 2009).

Tests used:
[1] = patients' assessment of local tolerability (5-point scale) and adverse events; assay type: in vivo, human; details: for assessments of local tolerability graded "acceptable" / assessments of local tolerability graded "poor" / assessments of local tolerability graded "well": percentage of all patient assessments over the study visits, topical
Description: • Safety laboratory parameters • Clinical safety examinations • Adverse events • Patient's assessment of local tolerability according to a 5-point scale.
In addition to the assessment of the therapeutical efficacy, the patients' assessments of local tolerability and the side effect profile was recorded in this clinical study described in example 1. FIG. 4 summarizes the patients' assessments of local tolerability which was recorded on each visit of the patients during the study period which took place on days 14, 24, 56 and 85. The patients assessed their perception of local tolerability according to the following grading scheme: […]

[2] = test system: mild to moderate facial acne vulgaris; assay: double-blind, randomized clinical study: counting of facial acne lesions; assay type: in vivo, human; details: for patients displaying for the first time a reduction of ≧30% in the total counts of all acne lesions: topical once daily, VPA 3% gel, isotretinoin 0.05% gel; for mean reduction of the number of acne lesions: day 85 compared to baseline (day 1), topical monotherapy
Description: This study was carried out as a double-blind, randomized study. Under informed consent patients with mild to moderate facial acne vulgaris were enrolled in the study. The treatment period was 12 weeks.
(§1) VPA was provided as a clear off-white, semi-solid 3% gel (30 mg/ml VPA). After washing the face with a mild cleanser, the gel was applied daily to the clean and dry skin once daily.
As a comparator reference therapy the retinoid isotretinoin was provided as a 0.05% gel (0.5 mg isotretinoin/g).
• Assessment of the therapeutic efficacy compared to the baseline was evaluated separately by the investigator and by the patient according to a 7-point scale • Counting of lesions in the entire face • Investigator's overall assessment of improvement by means of a photo documentation.
• efficacy: change of total count of facial acne lesions from baseline to the end of week 12 (comparing day 1 to day 85, i.e., d1, d85)
• efficacy: time to reduction of acne lesions by >30% • count of acne lesions in the face after 2, 4, 8 and 12 weeks of treatment and its percentage and absolute change to baseline • safety/tolerability: safety laboratory parameters • clinical safety • patient's assessment of local tolerability
In the clinical study described in Example 1, also the time to reduction of the total counts by ≧30% of all acne lesions treated was investigated on each visit of the patients to the study hospital. Once the reduction had reached ≧30%, the actual at this point estimated reduction rate and the day of the visit was recorded.
In the clinical study described in Example 1, the counts of acne lesions treated were also assessed as counts of different types of lesions separately, i.e., recording the number of inflammatory lesions, and recording the number of non-inflammatory lesions separately.

[3] = VPA content in blood (serum) after topical application, HPLC; assay type: in vivo; details: human, read-out: serum level of VPA
Description: as §1
In parallel, an analysis of the VPA content in the blood of acne vulgaris patients treated topically with a 3% VPA containing medication was performed using HPLC based methodology, and the results are presented in FIG. 3. […] These serum concentration levels were measured after daily treatment with up to approx. 2.000 mg of a 3% VPA containing medication topically applied which refers to a total daily dose of VPA approx. 60 mg. If more or larger lesions would be treated, and therefore higher daily amounts of VPA would be topically applied, it is expected that accordingly higher serum levels may be obtained.

Compound | assessments of local tolerability graded "acceptable" [1] | assessments of local tolerability graded "poor" [1] | assessments of local tolerability graded "well" [1] | patients displaying for the first time a reduction of ≧30% in the total counts of all acne lesions ([2]; day 28) | patients displaying for the first time a reduction of ≧30% in the total counts of all acne lesions ([2]; day 85) | mean reduction of the number of acne lesions [2] | adverse events observed ([1]; patients treated topically, all resolved after end of study) | median counts of inflammatory lesions ([2]; end of treatment day 85, day 1 before treatment 30) | median counts of non-inflammatory lesions ([2]; end of treatment day 85, day 1 before treatment 41) | concentration at 56 day ([3]; day 56, daily topical up to approx. 2.000 mg of 3% VPA medication (approx. 60 mg VPA)) | concentration at 85 day ([3]; day 85, daily topical up to approx. 2.000 mg of 3% VPA medication (approx. 60 mg VPA))
CC1=C(/C=C/C(C)=C/C=C/C(C)=C\C(=O)O)C(C)(C)CCC1 [isotretinoin] | 40.5% | 11.9% | 38.1% | three | two | approx. 54% | – | – | – | – | –
CCCC(CCC)C(=O)O [VPA, 2-propyl-pentanoic acid] | 23.8% | 4.8% | 61.9% | three | two | approx. 57% | mild to moderate administration site conditions | 14.4 lesions | 11.5 lesions | ≤ 2440 ng/mL | ≤ 1590 ng/mL
